In one assay the test system is 22RV-1 tumor xenograft. Kind of assay: In vivo 22Rv1 xenografts efficacy. Also noted: species or system mice. To be noted: 14 day; subcutaneous dosing (FIG. 7). On the procedure:
(§1) Mice were housed in pathogen-free animal facilities at New England Life Sciences (NELS, New Haven, Conn.). All experiments were conducted under an IACUC protocol that was approved by the NELS IACUC committee. Male Nu/Nu mice and CB17 SCID mice were obtained at 4-5 weeks age from Charles River Laboratories and implanted subcutaneously with 5×10^6 22Rv1 cells or 5×10^6 VCaP cells in Matrigel (Corning Life Sciences). After 10-14 days, mice bearing >200 mm^3 tumors were randomized into indicated number of groups with ten mice in each group while ensuring identical (±5 mm^3) mean tumor volume in each group. Dosing was carried out through the indicated route and with the indicated schedule for each drug for up to three weeks, depending on the experiment. Mice were sacrificed eight hours after the final dose. Blood was collected, processed to plasma, and flash frozen for PK analysis. Tissues were harvested and flash frozen for further analysis. All PK analysis was carried out at Drumetix Laboratories (Greensboro, N.C.). 2 out of 10 animals in each study arm were randomly excluded in pharmacodynamic analysis, for greater technical ease of running a 20-well protein gel. For PSA ELISA, only samples with at least 25 uL plasma remaining after PK analysis were utilized using the Cell Signaling PathScan® Total PSA/KLK3 Sandwich ELISA Kit #14119 following the manufacturer's protocol. […]

Another assay deals with T1, BRD2 (Homo sapiens, UniProt P25440).
T1 construct: endogenous in cells; host or cells: 22Rv1, VCaP, LnCaP95
T1 sequence (P25440 whole entry): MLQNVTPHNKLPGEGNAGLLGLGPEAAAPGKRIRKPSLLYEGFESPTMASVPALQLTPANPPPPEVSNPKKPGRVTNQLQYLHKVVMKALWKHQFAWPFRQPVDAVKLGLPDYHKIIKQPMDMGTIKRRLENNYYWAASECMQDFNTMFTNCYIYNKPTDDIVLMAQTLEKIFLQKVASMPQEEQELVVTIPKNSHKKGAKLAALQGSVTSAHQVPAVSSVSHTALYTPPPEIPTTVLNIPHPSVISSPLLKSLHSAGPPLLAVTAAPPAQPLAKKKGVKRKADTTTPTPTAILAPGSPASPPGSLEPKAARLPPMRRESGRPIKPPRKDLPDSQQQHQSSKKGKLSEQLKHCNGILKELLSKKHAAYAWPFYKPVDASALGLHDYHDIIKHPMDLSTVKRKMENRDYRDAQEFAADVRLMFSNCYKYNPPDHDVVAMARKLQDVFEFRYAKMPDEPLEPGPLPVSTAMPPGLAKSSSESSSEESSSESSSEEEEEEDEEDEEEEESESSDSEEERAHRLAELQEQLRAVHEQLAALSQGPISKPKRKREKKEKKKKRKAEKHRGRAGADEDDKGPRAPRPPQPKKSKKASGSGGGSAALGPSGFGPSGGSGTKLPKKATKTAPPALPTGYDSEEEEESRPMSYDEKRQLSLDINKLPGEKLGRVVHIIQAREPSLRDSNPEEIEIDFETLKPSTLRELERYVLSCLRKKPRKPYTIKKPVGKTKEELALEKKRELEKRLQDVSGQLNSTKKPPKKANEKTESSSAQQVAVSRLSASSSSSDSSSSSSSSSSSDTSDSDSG
The experiment in a line: Immunoblotting, BRD2 degradation. The format is cell-based. To be noted: 22RV-1, VCaP, and LnCaP95 cells (FIG. 1). From the text: (§2) 22Rv1 and VCaP cell lines were purchased from ATCC. LnCap95 cells were a generous gift from Dr. Alan Meeker at The Johns Hopkins University School of Medicine. BRD2 (#5848), BRD4 (#13440), PARP (#9532), c-Myc (#5605) antibodies were purchased from cell signaling. BRD3 (sc-81202) antibody was purchased from Santa Cruz Biotech. Antibodies used for immunohistochemistry were c-MYC (abcam #ab32072) and BRD4 (Bethyl Laboratories #a301-985a50). Actin and Tubulin antibodies were purchased from Sigma.
(§3) Cells were lysed in RIPA buffer (Thermo Fisher Cat #89900) supplemented with protease inhibitors (Pierce™ Protease Inhibitor Tablets, EDTA-free Cat #88266). Lysates were centrifuged at 16,000×g and supernatants were used for SDS-PAGE. Western blotting was carried out following standard protocols.
For orientation: In western blotting, separated proteins are transferred to a membrane and probed.

Assay [1] has as its target T2, BRD4 (Homo sapiens, UniProt O60885). The experiment in a line: BRD4 degradation in 22RV-1 tumor xenograft study. The class given is in vivo. The arrangement: from tissue; host or cells: 22Rv1 tumour xenograft harvested from mice. Conditions: 14-day 22RV-1 tumor xenograft study; dosed subcutaneously to mice at 10 mg/kg (qd) for 2 weeks (FIG. 6). On the procedure:
As a comparison, OTX-015 was also included (50 mg/kg, p.o., qd). Example 77 was dosed subcutaneously to mice at 10 mg/kg (qd) for 2 weeks.
as §1, with “gel.” for “gel. For PSA ELISA, only samples with at least 25 uL plasma remaining after PK analysis were utilized using the Cell Signaling PathScan® Total PSA/KLK3 Sandwich ELISA Kit #14119 following the manufacturer's protocol.”

In another assay the test system is c-myc in 22RV-1 cells. Kind of assay: Human c-myc ELISA assay. The class given is cell-based. A digest of the protocol: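 22RV-1 cells treated 18 h with 8-point 1:3 compound dilutions (final top 300 nM or 1 μM, 0.1% DMSO). Cells lysed in RIPA buffer with protease/phosphatase inhibitors, and c-myc protein in cleared lysate quantified by ELISA against a standard curve. DC50 reported for c-myc suppression.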
For orientation: ELISA stands for enzyme-linked immunosorbent assay.

Assay [2] relates to 22RV-1 cells. Kind of assay: Apoptosis assay (Caspase-Glo 3/7). The format is cell-based. To be noted: FIG. 5. On the procedure:
(§4) 22RV-1 cells are seeded at 5,000 cells/well at a volume of 75 μL/well in RPMI+10% FBS media in 96-well plates and grown overnight at 37 C. Cells are dosed with compounds at 4× concentration diluted in 0.4% DMSO; compounds are serially diluted 1:3 for 8-point dose curve. 25 ul of compounds is added to cells for a final concentration starting at 300 nM-0.3 nM in 0.1% DMSO and incubated for 48 hrs. After 48 hrs, 100 ul of Caspase-Glo® 3/7 (Promega Caspase-Glo 3/7 Assay #G8093 is added and incubated for 30 minutes, then read on luminometer. Data is analyzed and plotted using GraphPad Prism software.

A further assay concerns the target T3, BRD3 (Homo sapiens, UniProt Q15059).
T3 construct: endogenous in cells; host or cells: 22Rv1, VCaP, LnCaP95
The experiment in a line: Immunoblotting, BRD3 degradation. The format is cell-based. To be noted: 22RV-1, VCaP, and LnCaP95 cells (FIG. 1).
Description: as §2, §3

In assay [3] the target is T2, BRD4. The experiment in a line: Immunoblotting, BRD4 degradation. The format is cell-based. The arrangement: compounds which function to recruit endogenous proteins, e.g., BRd4, to E3 Ubiquitin Ligase for ubiquitination and degradation; endogenous in cells; host or cells: 22Rv1, VCaP, LnCaP95.
Description: as §2, §3

In assay [4] the test system is 22RV-1 cells. The experiment in a line: Cell proliferation assay (CellTiter-Glo). The class given is cell-based. To be noted: FIG. 4. As for the experimental part: as §4, with “10-point” for “8-point”, “72” for “48”, “hrs. In a separate plate, 100 ul of 5,000 cells/well are plated in 8 wells, 100 ul of CellTiter-Glo (CellTiter-Glo® Luminescent Cell Viability Assay, Promega #G7573) is added and incubated for 30 minutes, then read on luminometer to assess initial signal for cell growth.” for “hrs.”, “CellTiter-Glo” for “Caspase-Glo® 3/7 (Promega Caspase-Glo 3/7 Assay #G8093”

The source of these data is patent US11554171B2, “Compounds and methods for the targeted degradation of bromodomain-containing proteins” (Arvinas Operations, Inc., priority 2015, dated 2023).

A value given as a limit tells only on which side of the number the result lay.

T3 sequence (Q15059 whole entry): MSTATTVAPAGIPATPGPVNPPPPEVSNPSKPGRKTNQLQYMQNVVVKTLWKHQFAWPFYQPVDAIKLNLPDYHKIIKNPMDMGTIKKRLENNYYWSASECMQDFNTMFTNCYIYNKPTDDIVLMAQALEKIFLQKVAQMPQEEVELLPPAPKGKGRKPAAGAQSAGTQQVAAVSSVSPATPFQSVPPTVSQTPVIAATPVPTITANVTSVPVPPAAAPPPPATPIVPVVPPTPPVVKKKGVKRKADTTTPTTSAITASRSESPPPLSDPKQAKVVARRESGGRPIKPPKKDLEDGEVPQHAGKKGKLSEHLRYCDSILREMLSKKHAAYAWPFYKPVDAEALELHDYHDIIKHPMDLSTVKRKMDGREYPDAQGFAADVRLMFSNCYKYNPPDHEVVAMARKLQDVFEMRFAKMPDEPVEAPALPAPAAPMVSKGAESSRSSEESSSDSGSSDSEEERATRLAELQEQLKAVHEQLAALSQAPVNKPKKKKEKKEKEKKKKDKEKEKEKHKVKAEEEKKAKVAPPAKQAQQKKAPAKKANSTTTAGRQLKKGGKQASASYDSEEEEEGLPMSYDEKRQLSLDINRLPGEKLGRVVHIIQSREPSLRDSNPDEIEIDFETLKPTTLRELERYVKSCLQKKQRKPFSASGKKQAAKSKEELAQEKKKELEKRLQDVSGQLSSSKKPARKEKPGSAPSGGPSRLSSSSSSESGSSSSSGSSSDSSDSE

The DC50 is the midpoint of the concentration-degradation curve. Turning to `Cc1ncsc1-c1ccc([C@H](C)NC(=O)[C@@H]2C[C@@H](O)CN2C(=O)[C@@H](NC(=O)COCCCOCCNC(=O)C[C@@H]2N=C(c3ccc(Cl)cc3)c3c(sc(C)c3C)-n3c(C)nnc32)C(C)(C)C)cc1` [Example 77, (2S, 4R)-1-[(2S)-2-{2-[3-(2-{2-[(9S)-7-(4-chlorophenyl)-4,5,13-trimethyl-3-thia-1,8,11,12-tetraazatricyclo[8.3.0.0^2,^6]trideca-2(6),4,7,10,12-pentaen-9-yl]acetamido}ethoxy)propoxy]acetamido}-3,3-dimethylbutanoyl]-4-hydroxy-N-[(1S)-1-[4-(4-methyl-1,3-thiazol-5-yl)phenyl]ethyl]pyrrolidine-2-carboxamide], in the assay with 22RV-1 tumor xenograft, the “tumor response in 22RV-1 mice tumor xenograft model” value was “tumor regression”. Also, the “degradation of BRD2” value on BRD2 is reported as “degradation”. Besides, on BRD4 [1], the “degradation of BRD4 in tumor xenograft” value is given as “degradation of BRD4”. The “suppression of cellular c-MYC levels measured by ELISA” value in the assay with c-myc in 22RV-1 cells (FIG. 3) was “suppression”. For the same compound, the Emax in the assay with c-myc in 22RV-1 cells (Homo sapiens, 22Rv1, 18 h, read-out: Degradation of BRD4: Maximum inhibition (%) c-Myc ELISA in 22RV1 cells) came out at 100%. Also, the DC50 in the assay on c-myc in 22RV-1 cells (Homo sapiens, 22Rv1, read-out: Degradation of BRD4: DC50 (uM) c-Myc ELISA in 22RV1 cells) is under 0.01 µM. Moreover, the “caspase activation in prostate cancer cell lines” value with 22RV-1 cells [2] is “caspase activation”. For the same compound, the “degradation of BRD3” value at BRD3 is recorded as “degradation”. Moreover, the “degradation of BRD4” value on BRD4 [3] (22RV-1, VCaP, and LnCaP95 cells (FIG. 1)) is “degradation”. Further, on BRD4 [3] (FIG. 2), the “BRD4 degradation after pretreatment with an excess of VHL ligand ARV-056” value is “blocked” and the “BRD4 degradation in presence of proteasome inhibitor carfilzomib” value is recorded as “blocked”. For the same compound, the “proliferation inhibition of prostate cancer cell growth” value in the assay on 22RV-1 cells [4] is given as “proliferation inhibition”.
